For one test, the system named is eIF2α phosphorylation. Nature of the test: eIF2α phosphorylation during stress-recovery after DTT wash out. The test is classed as cell-based. Conditions: 30 minute 1 mM DTT and wash out. The method, then: The inventors reasoned that a PPP1R15B inhibitor should prolong eIF2α phosphorylation following stress. To reveal this activity, it was crucial to search for conditions where PPP1R15A is not expressed, to avoid confounding effects. The inventors took advantage of the fast kinetic and reversibility of stress induction by DTT (Bertolotti et al., Nat. Cell. Biol., 2, 326-332, 2000; Jousse et al., 2003) and monitored eIF2α phosphorylation in cells following a 30 minute treatment with 1 mM DTT and a wash out. […] Thus, careful monitoring of the kinetic of eIF2α dephosphorylation in the early phase of a stress-recovery paradigm such as the one described here can be used to identify other PPP1R15B inhibitors.

The subject of test [1] is eIF2α phosphorylation in MEFs. Nature of the test: eIF2α phosphorylation in r15a mut/mut or r15b mut/mut MEFs (immunoblot). The class given is cell-based, mouse. The method, then: HeLa cells were maintained in Dulbecco's Modified Eagle's Media (DMEM) supplemented with penicillin, streptomycin, glutamine and 10% fetal bovine serum (FBS). Ppp1r15a −/− and Ppp1r15b −/− MEF cells were maintained in DMEM supplemented with penicillin, streptomycin, glutamine, 55 μM β-mercaptoethanol, 1X non-essential amino acids (Sigma) and 10% FBS.
Cells (90,000 cells/ml) were plated in a 24-well plate and treated as indicated. At the end of treatment cells were lysed in 150 μl Laemmli Buffer. Lysates were boiled at 95° C. for 5 minutes, sonicated and resolved on 4-12% Bolt Bis-Tris Plus Gels (Thermo Fisher Scientific). Proteins were transferred to the nitrocellulose membrane using the iBlot 2 system (Thermo Fisher Scientific) and analysed using the following antibodies: e-IF2α-P (44-728G, Thermo Fisher Scientific, 1:1000), e-IF2α (ab5369, Abcam, 1:1000), tubulin (T5168, Sigma-Aldrich, 1:4000), BiP (610978, BD Biosciences Pharmingen, 1:1000), ATF4 (sc-200, Santa Cruz Biotechnology, 1:500), Ppp1r15a (10449-1-AP, Proteintech, 1:1000) and Ppp1r15b (14634-1-AP, Proteintech, 1:1000). Proteins were visualized using ECL Prime (GE Healthcare).

The subject of a further test is PPP1R15A. Nature of the test: Induction of PPP1R15A in mouse brain (qPCR). The test is classed as in vivo. To be noted: mice, indicated doses. The method, then:
RNA from brain was extracted in trizol (Life Technologies). RNA concentration was measured using a NANODROP1000 spectrophotometer (Thermo Fisher Scientific), and 1 μg was reverse transcribed to cDNA using a SuperScript reverse transcriptase (Life Technologies). Quantitative PCR with primers GAPDH (f): […], GAPDH (r): […], PPP1R15A (f): […];
and PPP1R15A (r): […] was performed using SYBR® Select Master Mix (Ref 4472908, applied biosystems) on a Corbett Rotor-Gene version 6000. Expression of each gene was normalized to the housekeeping gene GAPDH and expressed as fold change calculated using Paffl equation.
PPP1R15A induction was assessed by qPCR on total mRNA extracted from brains of mice treated with the indicated doses of compound of Example 1.

In another test the test system is db/db mice. Nature of the test: Blood glucose in obese db/db mice. The class given is in vivo, mouse. Conditions: 1 mg/kg once a day for three weeks. Here is the method:
For treatment of a metabolic disorder, Db/db animals (n=5 per condition) were treated once a day with 1 mg/kg of compound of Example 1 for three weeks. Blood glucose levels were measured with a blood glucose meter (DSI) between 9 and 10 am. Data are mean +/− S.e.m.

The target of a further test is PP1c (Homo sapiens, UniProt P36873). Nature of the test: SPR binding to PP1c alone immobilized on chip. Here is the method: The streptavidin coated surface was activated by 1 minute injection with a solution of 50 mM NaOH and 1 M NaCl three times at a flow rate of 10 μl/min. bio-GBZ or bio-PP1c was diluted in the running buffer (50 mM Tris pH 7.5, 100 mM NaCl, 0.1 mM EGTA, 0.05% Tween 20, 0.1% DMSO) and injected at approximately 300 nM concentration at a flow rate of 10 μl/min directly to streptavidin coated surface to reach immobilization level of bio-GBZ or bio-PP1c corresponding to ˜200 and 6000 RU, respectively. A blank immobilization was performed for one of the SA sensor chip surface to use as a reference.
Chain of PP1c (P36873 whole entry): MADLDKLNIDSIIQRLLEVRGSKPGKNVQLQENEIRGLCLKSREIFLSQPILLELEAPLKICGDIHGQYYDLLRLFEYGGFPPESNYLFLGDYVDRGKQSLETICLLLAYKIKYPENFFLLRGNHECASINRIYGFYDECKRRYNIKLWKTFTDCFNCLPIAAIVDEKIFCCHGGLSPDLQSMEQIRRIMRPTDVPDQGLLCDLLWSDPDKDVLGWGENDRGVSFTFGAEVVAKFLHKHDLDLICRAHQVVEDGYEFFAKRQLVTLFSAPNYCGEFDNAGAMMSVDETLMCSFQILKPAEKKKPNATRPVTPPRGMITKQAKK
With minor deviations, the same procedure and conditions were used in all binding experiments. Small molecules were stored as 50 mM stock solutions in 100% DMSO. Prior to determining binding constants, serial dilutions of either 12 or 8 concentrations of the compounds were prepared in the running buffer in a 96-well plate. […] This was followed by 1 minute stabilization period, to wash off any unspecific binding. Then, without regenerating the surface, the compound dilution series was injected onto the surface of the chip at a flow rate of 30 μl/min for 1 minute, followed by 2 minutes dissociation time. […]
Kinetic experiments are carried out using different concentrations of the compound and their respective equilibrium binding levels determined.
Background: SPR reads the build-up and loss of mass on a sensor chip optically.

The next test concerns R15A. Kind of test: SPR of recombinant R15A binding to immobilized bio-GBZ. Details: species or system human. Conditions: immobilized biotinylated GBZ. Here is the method:
B. SPR sensorgrams of R15A and R15B binding to bio-GBZ immobilized on the SPR sensor chip surface. R15A/B concentration=0.0244-12.5 μM.
Here we set out to develop a generalizable strategy to identify new selective phosphatase inhibitors. First, we expressed and purified R15A and R15 B (FIG. 12) and used surface plasmon resonance (SPR) to measure binding affinities of known R15A inhibitors to their targets. We tried to immobilized R15 on SPR chip but this method produced inconsistent results, probably because the natively unstructured proteins precipitate on the chip. We therefore used biotynilated guanabenz (GBZ) (7) that we immobilized on the chip and tested binding of the proteins on the immobilized compound (FIGS. 13A and 13B).
A Biacore T200 (GE Healthcare) system was used for all experiments and biotinylated GBZ (bio-GBZ) (Tsaylter 2011) or bio-PP1 was captured on a Sensor Chip SA (GE Healthcare). […]

We go through two compounds from patent publication US11364211B2, “Methods for selecting phosphatase selective and non-selective phosphatase inhibitors” (MEDICAL RESEARCH COUNCIL, priority 2015, dated 2022).

Entries after “also recorded” stand apart in the source; their conditions may differ.

`[H]/N=C(\N)NN=Cc1cccc(Cl)c1Cl` [Example 1, (E)-2-(2,3-dichlorobenzylidene)hydrazine-1-carboximidamide]: in the test with eIF2α phosphorylation, the “eIF2α phosphorylation following stress” value is recorded as “prolongs eIF2α phosphorylation”. The “eIF2α phosphorylation upon inactivation of R15A” value in test [1] (r15a mut/mut MEFs) was “rendered persistent”. The “effect on eIF2α phosphorylation in r15b knock out cells” value in test [1] (r15b mut/mut MEFs, 10 μM, listed as TST3) is “activity is abolished”. Moreover, the “induction of PPP1R15A mRNA in brain” value in the test on PPP1R15A is recorded as “induced PPP1R15A; also recorded: induction of R15A”. In addition, the blood glucose result with db/db mice is given as “ameliorate a metabolic disorder; also recorded: reduced the pathological high blood glucose”.

As to `N=C(N)N/N=C/c1c(Cl)cccc1Cl` [Guanabenz, reference compound], the “binding to PP1c alone (in words)” value at PP1c was “not to PP1c alone”. In the test on R15A, the “affinity for recombinant R15A fragment relative to R15B” value is “ten times higher affinity”.
